Test system: 922993-354-T-J3-PDC complex spheroids, viability
Test: Anticancer human tumor 922993-354-T-J3-PDC patient-derived endometrial carcinoma cell line growth inhibition [GQUAD]
Conditions: for IC50: curve of first compound; for viability, T/C: stronger effect = lower value; active means viability on the fitted dose curve at most 10% of control; inactive means the rest
Method in brief: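 Multi-cell-type spheroids of tumor cells with HUVEC and mesenchymal stem cells, treated with drug combinations. Concentrations descend in half-log steps from near clinical Cmax, or from 10 microM where Cmax is unknown; viability read-out.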

[1] = second compound 0.0316 µM, first compound 0.0316 µM
[2] = second compound 0.0316 µM, first compound 0.1 µM
[3] = second compound 0.0316 µM, first compound 0.316 µM
[4] = second compound 0.0316 µM, first compound 1 µM
[5] = second compound 0.0316 µM, first compound 3.16 µM
[6] = second compound 0.0316 µM, first compound 10 µM
[7] = second compound 0.1 µM, first compound 0.0316 µM
[8] = second compound 0.1 µM, first compound 0.1 µM
[9] = second compound 0.1 µM, first compound 0.316 µM
[10] = second compound 0.1 µM, first compound 1 µM
[11] = second compound 0.1 µM, first compound 3.16 µM
[12] = second compound 0.1 µM, first compound 10 µM
[13] = second compound 0.316 µM, first compound 0.0316 µM
[14] = second compound 0.316 µM, first compound 0.1 µM
[15] = second compound 0.316 µM, first compound 0.316 µM
[16] = second compound 0.316 µM, first compound 1 µM
[17] = second compound 0.316 µM, first compound 3.16 µM
[18] = second compound 0.316 µM, first compound 10 µM
[19] = second compound 1 µM, first compound 0.0316 µM
[20] = second compound 1 µM, first compound 0.1 µM
[21] = second compound 1 µM, first compound 0.316 µM
[22] = second compound 1 µM, first compound 1 µM
[23] = second compound 1 µM, first compound 3.16 µM
[24] = second compound 1 µM, first compound 10 µM
[25] = second compound 3.16 µM, first compound 0.0316 µM
[26] = second compound 3.16 µM, first compound 0.1 µM
[27] = second compound 3.16 µM, first compound 0.316 µM
[28] = second compound 3.16 µM, first compound 1 µM
[29] = second compound 3.16 µM, first compound 3.16 µM
[30] = second compound 3.16 µM, first compound 10 µM
[31] = second compound 10 µM, first compound 0.0316 µM
[32] = second compound 10 µM, first compound 0.1 µM
[33] = second compound 10 µM, first compound 0.316 µM
[34] = second compound 10 µM, first compound 1 µM
[35] = second compound 10 µM, first compound 3.16 µM
[36] = second compound 10 µM, first compound 10 µM
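Further: spheroids exposed to compounds for seven days.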
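Wherever viability, T/C is given: 100% = DMSO vehicle control viability.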

CCCS(=O)(=O)Nc1ccc(F)c(C(=O)c2c[nH]c3ncc(-c4ccc(Cl)cc4)cc23)c1F + Cc1cnc(CNC(=O)c2c(=O)c3ccc(N4CCCN(C)CC4)nc3n3c2sc2ccccc23)cn1
0.0642 µM: IC50 (second compound 1 µM)
0.777 µM: IC50 (second compound 0.1 µM)
> 10 µM: IC50 (second compound 0.0316 µM)
inactive: viability, T/C [1] 93.5% | viability, T/C [2] 83.8% | viability, T/C [3] 83.3% | viability, T/C [4] 78.4% | viability, T/C [5] 84.6% | viability, T/C [6] 63.8% | viability, T/C [7] 60.9% | viability, T/C [8] 62.2% | viability, T/C [9] 56.1% | viability, T/C [10] 45.5% | viability, T/C [11] 42.2% | viability, T/C [12] 40% | viability, T/C [13] 51.2% | viability, T/C [14] 40.9% | viability, T/C [15] 42.3% | viability, T/C [16] 47.4% | viability, T/C [17] 34.6% | viability, T/C [18] 46.4% | viability, T/C [19] 51.4% | viability, T/C [20] 52.3% | viability, T/C [21] 46.3% | viability, T/C [22] 36.8% | viability, T/C [23] 47.7% | viability, T/C [24] 48.2% | viability, T/C [25] 39.7% | viability, T/C [26] 47.2% | viability, T/C [27] 43.6% | viability, T/C [28] 42% | viability, T/C [29] 58% | viability, T/C [30] 37.9% | viability, T/C [31] 43.5% | viability, T/C [32] 37% | viability, T/C [33] 36.9% | viability, T/C [34] 35.9% | viability, T/C [35] 37.9% | viability, T/C [36] 20.1%
0.037 µM: IC50 (second compound 0.316 µM)
< 0.0316 µM: IC50 (second compound 3.16 µM) | IC50 (second compound 10 µM)

COc1cc(C2c3cc4c(cc3C(OC3OC5COC(C)OC5C(O)C3O)C3COC(=O)C23)OCO4)cc(OC)c1O (stereo not drawn) + Cc1cnc(CNC(=O)c2c(=O)c3ccc(N4CCCN(C)CC4)nc3n3c2sc2ccccc23)cn1
> 10 µM: IC50 (second compound 0.0316 µM) | IC50 (second compound 0.1 µM)
inactive: viability, T/C [1] 82.3% | viability, T/C [2] 60% | viability, T/C [3] 60.5% | viability, T/C [4] 74.5% | viability, T/C [5] 50.9% | viability, T/C [6] 49.9% | viability, T/C [7] 62.3% | viability, T/C [8] 59.1% | viability, T/C [9] 53.8% | viability, T/C [10] 63.6% | viability, T/C [11] 62.8% | viability, T/C [12] 39.9% | viability, T/C [13] 44.1% | viability, T/C [14] 53.2% | viability, T/C [15] 38.6% | viability, T/C [16] 49.7% | viability, T/C [17] 41.6% | viability, T/C [18] 34.3% | viability, T/C [19] 46.8% | viability, T/C [20] 39.9% | viability, T/C [21] 49.6% | viability, T/C [22] 36.1% | viability, T/C [23] 36% | viability, T/C [24] 43.4% | viability, T/C [25] 40.6% | viability, T/C [26] 47% | viability, T/C [27] 39.1% | viability, T/C [28] 46.6% | viability, T/C [29] 52.4% | viability, T/C [30] 48.2% | viability, T/C [31] 47.9% | viability, T/C [32] 50.3% | viability, T/C [33] 45.4% | viability, T/C [34] 38.2% | viability, T/C [35] 43.4% | viability, T/C [36] 41%
< 0.0316 µM: IC50 (second compound 0.316 µM) | IC50 (second compound 1 µM) | IC50 (second compound 3.16 µM) | IC50 (second compound 10 µM)

O=C(NO)c1cnc(N2CCN(S(=O)(=O)c3ccc4ccccc4c3)CC2)nc1 + Cc1cnc(CNC(=O)c2c(=O)c3ccc(N4CCCN(C)CC4)nc3n3c2sc2ccccc23)cn1
< 0.0316 µM: IC50 (second compound 0.316 µM) | IC50 (second compound 1 µM) | IC50 (second compound 3.16 µM) | IC50 (second compound 10 µM)
inactive: viability, T/C [1] 80.3% | viability, T/C [2] 85% | viability, T/C [3] 59.2% | viability, T/C [4] 30.6% | viability, T/C [7] 63.8% | viability, T/C [8] 47.5% | viability, T/C [9] 32.4% | viability, T/C [10] 20.5% | viability, T/C [13] 46.4% | viability, T/C [14] 32% | viability, T/C [15] 36.2% | viability, T/C [16] 21.2% | viability, T/C [17] 11.2% | viability, T/C [19] 44.3% | viability, T/C [20] 45.7% | viability, T/C [21] 28.4% | viability, T/C [22] 12.4% | viability, T/C [25] 42% | viability, T/C [26] 36.8% | viability, T/C [27] 24.9% | viability, T/C [31] 38.7% | viability, T/C [32] 25% | viability, T/C [33] 14.2%
0.482 µM: IC50 (second compound 0.0316 µM)
active: viability, T/C [5] 5.35% | viability, T/C [6] 0.97% | viability, T/C [11] 8.63% | viability, T/C [12] 1.81% | viability, T/C [18] 2.24% | viability, T/C [23] 5.24% | viability, T/C [24] 0.22% | viability, T/C [28] 4.62% | viability, T/C [29] 0.18% | viability, T/C [30] 0.17% | viability, T/C [34] 0.2% | viability, T/C [35] 0.21% | viability, T/C [36] 0.22%
0.0846 µM: IC50 (second compound 0.1 µM)

C=CCn1c(=O)c2cnc(Nc3ccc(N4CCN(C)CC4)cc3)nc2n1-c1cccc(C(C)(C)O)n1 + Cc1[nH]c2ccc(F)cc2c1-c1nc2c3cccnc3c3ncccc3c2[nH]1
inactive: viability, T/C [1] 119% | viability, T/C [2] 107% | viability, T/C [3] 119% | viability, T/C [4] 101% | viability, T/C [5] 70.6% | viability, T/C [6] 16.6% | viability, T/C [7] 127% | viability, T/C [8] 81.2% | viability, T/C [9] 108% | viability, T/C [10] 91.7% | viability, T/C [11] 64.6% | viability, T/C [12] 16.4% | viability, T/C [13] 97.5% | viability, T/C [14] 122% | viability, T/C [15] 128% | viability, T/C [16] 116% | viability, T/C [17] 52.1% | viability, T/C [18] 14.7% | viability, T/C [19] 91.9% | viability, T/C [20] 102% | viability, T/C [21] 101% | viability, T/C [22] 91% | viability, T/C [23] 80.4% | viability, T/C [24] 17.9% | viability, T/C [25] 114% | viability, T/C [26] 81.5% | viability, T/C [27] 124% | viability, T/C [28] 107% | viability, T/C [29] 75.4% | viability, T/C [30] 17.4% | viability, T/C [31] 105% | viability, T/C [32] 97.9% | viability, T/C [33] 104% | viability, T/C [34] 98.2% | viability, T/C [35] 63.6% | viability, T/C [36] 15%
5.24 µM: IC50 (second compound 3.16 µM)
3.37 µM: IC50 (second compound 0.316 µM)
4.37 µM: IC50 (second compound 10 µM)
5.51 µM: IC50 (second compound 1 µM)
4.83 µM: IC50 (second compound 0.0316 µM)
4.5 µM: IC50 (second compound 0.1 µM)
